# Experimental data reported in the supplement of paper PMC4862054.
# Tested on: HDQ-P1
# Experiment: drug sensitivity score (DSS), CellTiter-Glo (DSS (AUC-based score)); higher = stronger drug effect (viability inhibition or cytotoxicity); extreme values may be limits of the assay
# Conditions: incubation time: 72 h
# Method in brief: (§1)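 After 72 h of incubation in 384-well plates with compound at 5 concentrations (10-fold steps, 10,000-fold range set per compound), breast cancer cell lines seeded in 20 µl suspension were read first for CellTox Green fluorescence at 485/520 nm. CellTiter-Glo luminescence was measured next, after 10 min at room temperature. Normalisation on each plate used 0.1 % DMSO and a positive kill control, and the drug sensitivity score was computed from the area under the fitted dose-response curve.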
row,SMILES,drug sensitivity score
1,CCCCCOC(=O)Nc1nc(=O)n([C@@H]2O[C@H](C)[C@@H](O)[C@H]2O)cc1F [Capecitabine],0
2,CC(C)C[C@H](NC(=O)[C@H](CCc1ccccc1)NC(=O)CN1CCOCC1)C(=O)N[C@@H](Cc1ccccc1)C(=O)N[C@@H](CC(C)C)C(=O)[C@@]1(C)CO1 [Carfilzomib],20.7
3,Nc1nc(Cl)nc2c1ncn2[C@@H]1O[C@H](CO)[C@@H](O)[C@@H]1F [Clofarabine],3.38
4,CCN(CC)CCOc1ccc(C(=C(Cl)c2ccccc2)c2ccccc2)cc1 [Clomifene],0
5,C[C@@H]1C[C@H]2[C@@H]3CCC4=CC(=O)C=C[C@]4(C)[C@@]3(F)[C@@H](O)C[C@]2(C)[C@@]1(O)C(=O)CO [Dexamethasone],4.16
6,CCc1cnn2c(NCc3ccc[n+]([O-])c3)cc(N3CCCC[C@H]3CCO)nc12 [Dinaciclib],18.2
7,Cc1c(C(=O)Nc2ccc(N3C[C@@H](C)O[C@@H](C)C3)nc2)cccc1-c1ccc(OC(F)(F)F)cc1 [Erismodegib],0.664
8,CC(C)C(=O)Nc1ccc([N+](=O)[O-])c(C(F)(F)F)c1 [Flutamide],0
9,COc1cc2c(Oc3ccc(NC(=O)C4(C(=O)Nc5ccc(F)cc5)CC4)cc3F)ccnc2cc1OCCCN1CCOCC1 [Foretinib],0
10,COc1cc(Nc2ncc(F)c(Nc3ccc4c(n3)N(COP(=O)(O)O)C(=O)C(C)(C)O4)n2)cc(OC)c1OC [Fostamatinib],2.19
11,CC(C)NC[C@@H](C(=O)N1CCN(c2ncnc3c2[C@H](C)C[C@H]3O)CC1)c1ccc(Cl)cc1 [GDC-0068],7.19
12,CCCc1cc(C)[nH]c(=O)c1CNC(=O)c1cc(-c2ccnc(N3CCN(C)CC3)c2)cc2c1cnn2C(C)C [GSK343],0
13,NC(=O)NO [Hydroxyurea],0

# Tested on: DU-4475
# Experiment: as above
# Conditions: incubation time: 72 h
# Method in brief: as §1
row,SMILES,drug sensitivity score
1,CCCCCOC(=O)Nc1nc(=O)n([C@@H]2O[C@H](C)[C@@H](O)[C@H]2O)cc1F [Capecitabine],0
2,CC(C)C[C@H](NC(=O)[C@H](CCc1ccccc1)NC(=O)CN1CCOCC1)C(=O)N[C@@H](Cc1ccccc1)C(=O)N[C@@H](CC(C)C)C(=O)[C@@]1(C)CO1 [Carfilzomib],15.4
3,Nc1nc(Cl)nc2c1ncn2[C@@H]1O[C@H](CO)[C@@H](O)[C@@H]1F [Clofarabine],6.22
4,CCN(CC)CCOc1ccc(C(=C(Cl)c2ccccc2)c2ccccc2)cc1 [Clomifene],2.97
5,C[C@@H]1C[C@H]2[C@@H]3CCC4=CC(=O)C=C[C@]4(C)[C@@]3(F)[C@@H](O)C[C@]2(C)[C@@]1(O)C(=O)CO [Dexamethasone],0
6,CCc1cnn2c(NCc3ccc[n+]([O-])c3)cc(N3CCCC[C@H]3CCO)nc12 [Dinaciclib],16.6
7,Cc1c(C(=O)Nc2ccc(N3C[C@@H](C)O[C@@H](C)C3)nc2)cccc1-c1ccc(OC(F)(F)F)cc1 [Erismodegib],0
8,CC(C)C(=O)Nc1ccc([N+](=O)[O-])c(C(F)(F)F)c1 [Flutamide],0
9,COc1cc2c(Oc3ccc(NC(=O)C4(C(=O)Nc5ccc(F)cc5)CC4)cc3F)ccnc2cc1OCCCN1CCOCC1 [Foretinib],0
10,COc1cc(Nc2ncc(F)c(Nc3ccc4c(n3)N(COP(=O)(O)O)C(=O)C(C)(C)O4)n2)cc(OC)c1OC [Fostamatinib],0
11,CC(C)NC[C@@H](C(=O)N1CCN(c2ncnc3c2[C@H](C)C[C@H]3O)CC1)c1ccc(Cl)cc1 [GDC-0068],1.13
12,CCCc1cc(C)[nH]c(=O)c1CNC(=O)c1cc(-c2ccnc(N3CCN(C)CC3)c2)cc2c1cnn2C(C)C [GSK343],1.22
13,NC(=O)NO [Hydroxyurea],0

# Tested on: Hs578T
# Experiment: as above
# Conditions: incubation time: 72 h
# Method in brief: as §1
row,SMILES,drug sensitivity score
1,CCCCCOC(=O)Nc1nc(=O)n([C@@H]2O[C@H](C)[C@@H](O)[C@H]2O)cc1F [Capecitabine],0
2,CC(C)C[C@H](NC(=O)[C@H](CCc1ccccc1)NC(=O)CN1CCOCC1)C(=O)N[C@@H](Cc1ccccc1)C(=O)N[C@@H](CC(C)C)C(=O)[C@@]1(C)CO1 [Carfilzomib],22.9
3,Nc1nc(Cl)nc2c1ncn2[C@@H]1O[C@H](CO)[C@@H](O)[C@@H]1F [Clofarabine],1.74
4,CCN(CC)CCOc1ccc(C(=C(Cl)c2ccccc2)c2ccccc2)cc1 [Clomifene],4.79
5,C[C@@H]1C[C@H]2[C@@H]3CCC4=CC(=O)C=C[C@]4(C)[C@@]3(F)[C@@H](O)C[C@]2(C)[C@@]1(O)C(=O)CO [Dexamethasone],0
6,CCc1cnn2c(NCc3ccc[n+]([O-])c3)cc(N3CCCC[C@H]3CCO)nc12 [Dinaciclib],18.7
7,Cc1c(C(=O)Nc2ccc(N3C[C@@H](C)O[C@@H](C)C3)nc2)cccc1-c1ccc(OC(F)(F)F)cc1 [Erismodegib],0
8,CC(C)C(=O)Nc1ccc([N+](=O)[O-])c(C(F)(F)F)c1 [Flutamide],0
9,COc1cc2c(Oc3ccc(NC(=O)C4(C(=O)Nc5ccc(F)cc5)CC4)cc3F)ccnc2cc1OCCCN1CCOCC1 [Foretinib],0
10,COc1cc(Nc2ncc(F)c(Nc3ccc4c(n3)N(COP(=O)(O)O)C(=O)C(C)(C)O4)n2)cc(OC)c1OC [Fostamatinib],4.77
11,CC(C)NC[C@@H](C(=O)N1CCN(c2ncnc3c2[C@H](C)C[C@H]3O)CC1)c1ccc(Cl)cc1 [GDC-0068],3.59
12,CCCc1cc(C)[nH]c(=O)c1CNC(=O)c1cc(-c2ccnc(N3CCN(C)CC3)c2)cc2c1cnn2C(C)C [GSK343],0
13,NC(=O)NO [Hydroxyurea],0

# Tested on: MDA-MB-436
# Experiment: as above
# Conditions: incubation time: 72 h
# Method in brief: as §1
row,SMILES,drug sensitivity score
1,CCCCCOC(=O)Nc1nc(=O)n([C@@H]2O[C@H](C)[C@@H](O)[C@H]2O)cc1F [Capecitabine],0.812
2,CC(C)C[C@H](NC(=O)[C@H](CCc1ccccc1)NC(=O)CN1CCOCC1)C(=O)N[C@@H](Cc1ccccc1)C(=O)N[C@@H](CC(C)C)C(=O)[C@@]1(C)CO1 [Carfilzomib],26.5
3,Nc1nc(Cl)nc2c1ncn2[C@@H]1O[C@H](CO)[C@@H](O)[C@@H]1F [Clofarabine],16
4,CCN(CC)CCOc1ccc(C(=C(Cl)c2ccccc2)c2ccccc2)cc1 [Clomifene],0
5,C[C@@H]1C[C@H]2[C@@H]3CCC4=CC(=O)C=C[C@]4(C)[C@@]3(F)[C@@H](O)C[C@]2(C)[C@@]1(O)C(=O)CO [Dexamethasone],0
6,CCc1cnn2c(NCc3ccc[n+]([O-])c3)cc(N3CCCC[C@H]3CCO)nc12 [Dinaciclib],20.7
7,Cc1c(C(=O)Nc2ccc(N3C[C@@H](C)O[C@@H](C)C3)nc2)cccc1-c1ccc(OC(F)(F)F)cc1 [Erismodegib],2.73
8,CC(C)C(=O)Nc1ccc([N+](=O)[O-])c(C(F)(F)F)c1 [Flutamide],0
9,COc1cc2c(Oc3ccc(NC(=O)C4(C(=O)Nc5ccc(F)cc5)CC4)cc3F)ccnc2cc1OCCCN1CCOCC1 [Foretinib],0.456
